Measurements from paper PMC5131891, “Structural Insights into Streptococcal Competence Regulation by the Cell-to-Cell Communication System ComRS” (PLoS Pathogens, 2016).
“And” between values parts separate entries of the source, which are not always exact repeats. Equal values may be shown once. Peptide text beside a SMILES is read from it.

Tests used:
ComR K100A = ComR K100A (Streptococcus thermophilus, UniProt A0A1L1QK15, K100A); assay: ITC, XIP binding on ComR K100A; parameters: species or system Streptococcus thermophilus LMD-9
ComR K100A, sequence (A0A1L1QK15 entry or part of it K100A): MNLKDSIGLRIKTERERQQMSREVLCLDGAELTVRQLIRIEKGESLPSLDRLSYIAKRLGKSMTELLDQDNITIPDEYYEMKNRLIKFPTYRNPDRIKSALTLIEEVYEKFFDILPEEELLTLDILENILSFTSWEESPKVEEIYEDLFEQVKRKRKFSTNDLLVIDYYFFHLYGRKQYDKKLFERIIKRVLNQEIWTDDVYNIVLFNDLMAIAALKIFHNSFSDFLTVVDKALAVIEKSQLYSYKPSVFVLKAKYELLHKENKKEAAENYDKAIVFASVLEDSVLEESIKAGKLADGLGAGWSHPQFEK
Protocol: (§1) Purification of ComR-StreptagII proteins (StreptagII at C-terminus) was performed as described previously with some modifications. E. coli strain BL21 Gold cultures were grown in 2YT medium at 15°C until an OD600 of ~ 0.5, cooled down on ice for 10 minutes, and induced by addition of 0.2% of L-arabinose (wt vol^-1) before continuous shaking at 28°C for 4 h. Cells were then harvested by centrifugation (5,000 × g during 15 min at 8°C). The pellets were resuspended in cold buffer W (100 mM Tris-HCl pH 8.0, 150 mM NaCl, 1 mM EDTA) supplemented with 0.5 mg ml^−1 of lysozyme, incubated for 30 min at 4°C, and sonicated at 4°C. […] Their purity was visualized by SDS-PAGE and their concentrations were measured using a Nanodrop apparatus (protein A280 method) (ThermoFisher Scientific).
(§2) Isothermal titration calorimetry (ITC) experiments were performed at 20°C in 20 mM Tris-HCl pH 8.0, 150 mM NaCl, 1 mM EDTA with an ITC200 calorimeter (Microcal). […] The peptide concentration used in the calculations is based on the weight of the lyophilized peptide and is therefore inaccurate because there may be a significant quantity of bound water, and salts or counter ions. However, the calculated number of binding sites, n, is always close to 1, in agreement with the 1:1 ratio observed in the crystal structure of the ternary complex. […] The calculated KD are therefore apparent values.

ComR Y91A = ComR Y91A (Streptococcus thermophilus, UniProt A0A1L1QK15, Y91A); assay: ITC, XIP binding on ComR Y91A; parameters: species or system Streptococcus thermophilus LMD-9
ComR Y91A, sequence (A0A1L1QK15 entry or part of it Y91A): as the sequence (A0A1L1QK15 entry or part of it K100A) above, with Y91A, A100K counted along it
Protocol: as §1, §2

ComR K87A/K246A [1] = target: ComR K87A/K246A (Streptococcus thermophilus, UniProt A0A1L1QK15, K87A/K246A); assay: ITC, XIP binding on ComR K87A/K246A; parameters: species or system Streptococcus thermophilus LMD-9; details: ITC, ComR K87A/K246A
ComR K87A/K246A (Streptococcus thermophilus, UniProt A0A1L1QK15, K87A/K246A), sequence (A0A1L1QK15 entry or part of it K87A/K246A): as the sequence (A0A1L1QK15 entry or part of it K100A) above, with K87A, A100K, K246A counted along it
Protocol: as §1, §2

ComR K87A/K246A [2] = target: ComR K87A/K246A (Streptococcus thermophilus, UniProt A0A1L1QK15, K246A/K87A); assay: ITC, XIP binding on ComR K87A/K246A; parameters: species or system Streptococcus thermophilus LMD-9
ComR K87A/K246A (Streptococcus thermophilus, UniProt A0A1L1QK15, K246A/K87A), sequence (A0A1L1QK15 entry or part of it K87A/K246A): as the sequence (A0A1L1QK15 entry or part of it K100A) above, with K87A, A100K, K246A counted along it
Protocol: as §1, §2

ComR WT = ComR WT (Streptococcus thermophilus, UniProt A0A1L1QK15); assay: biochemical; assay type: binding, Streptococcus thermophilus LMD-9; details: KD
ComR WT, sequence (A0A1L1QK15 entry or part of it): as the sequence (A0A1L1QK15 entry or part of it K100A) above, with A100K counted along it
Protocol: Purification of ComR-StreptagII proteins (StreptagII at C-terminus) was performed as described previously with some modifications. E. coli strain BL21 Gold cultures were grown in 2YT medium at 15°C until an OD600 of ~ 0.5, cooled down on ice for 10 minutes, and induced by addition of 0.2% of L-arabinose (wt vol^-1) before continuous shaking at 28°C for 4 h. Cells were then harvested by centrifugation (5,000 × g during 15 min at 8°C). The pellets were resuspended in cold buffer W (100 mM Tris-HCl pH 8.0, 150 mM NaCl, 1 mM EDTA) supplemented with 0.5 mg ml^−1 of lysozyme, incubated for 30 min at 4°C, and sonicated at 4°C. […] For structural and biophysical analyses, the purification protocol was completed by a size exclusion chromatography step using a HiLoad 16/600 Superdex 75 prep grade column (GE Healthcare) equilibrated in buffer W plus 10% (vol vol^-1) glycerol. Purified proteins were aliquoted, flash frozen and conserved at -20°C. Their purity was visualized by SDS-PAGE and their concentrations were measured using a Nanodrop apparatus (protein A280 method) (ThermoFisher Scientific).
Isothermal titration calorimetry (ITC) experiments were performed at 20°C in 20 mM Tris-HCl pH 8.0, 150 mM NaCl, 1 mM EDTA with an ITC200 calorimeter (Microcal). The protein concentration in the microcalorimeter cell and the peptide concentration in the syringe were set at 50 μM and 500 μM, respectively. A first injection of 0.4 μl, which was not taken into account for the fitting, was followed by 20 injections of 2 μl at intervals of 180 s. The peptide concentration used in the calculations is based on the weight of the lyophilized peptide and is therefore inaccurate because there may be a significant quantity of bound water, and salts or counter ions. However, the calculated number of binding sites, n, is always close to 1, in agreement with the 1:1 ratio observed in the crystal structure of the ternary complex. […] The data were analyzed using the MicroCal Origin software provided by the manufacturer. […] It was therefore not possible to distinguish the two events and the fitting was performed with the one-binding-site model. The calculated KD are therefore apparent values.

ComR T90A = ComR T90A (Streptococcus thermophilus, UniProt A0A1L1QK15, T90A); assay: ITC, XIP binding on ComR T90A; parameters: species or system Streptococcus thermophilus LMD-9
ComR T90A, sequence (A0A1L1QK15 entry or part of it T90A): as the sequence (A0A1L1QK15 entry or part of it K100A) above, with T90A, A100K counted along it
Protocol: as §1, §2

ComR R92A = ComR R92A (Streptococcus thermophilus, UniProt A0A1L1QK15, R92A); assay: ITC, XIP binding on ComR R92A; parameters: species or system Streptococcus thermophilus LMD-9
ComR R92A, sequence (A0A1L1QK15 entry or part of it R92A): as the sequence (A0A1L1QK15 entry or part of it K100A) above, with R92A, A100K counted along it
Protocol: as §1, §2

[3] = compared with heptapeptide 18–24; ref [30]; cited from earlier work
Protocol: The corresponding synthetic XIP peptide […] as well as the variants used in the functional analysis were supplied by GenScript or Peptide 2.0 (Chantilly, VA) and resuspended at a concentration of 50 mM in 50% DMSO / 50% protein stora ...

ComR F171A/Y174A = ComR F171A/Y174A (Streptococcus thermophilus, UniProt A0A1L1QK15, F171A/Y174A); assay: ITC, XIP binding on ComR F171A/Y174A; parameters: species or system Streptococcus thermophilus LMD-9
ComR F171A/Y174A, sequence (A0A1L1QK15 entry or part of it F171A/Y174A): as the sequence (A0A1L1QK15 entry or part of it K100A) above, with A100K, F171A, Y174A counted along it
Protocol: as §1, §2

CC(C)C[C@H](NC(=O)[C@H](CS)NC(=O)CNC(=O)[C@H](C)NC(=O)[C@H](Cc1ccccc1)NC(=O)[C@H](Cc1ccc(O)cc1)NC(=O)[C@@H]1CCCN1C(=O)[C@@H](N)CC(C)C)C(=O)O [XIP] (H-LPYFAGCL-OH)
Kd (ComR K100A): 1170 ± 245 nM | Kd (ComR Y91A): 141 ± 33 nM | KD value in words (ComR Y91A; ITC, ComR Y91A): same order of magnitude than observed with T90A mutant | affinity in words (ComR K87A/K246A [1]): did not affect the affinity of ComR for the XIP peptide | Kd (ComR K87A/K246A [2]): 9 ± 3 nM | Kd (ComR WT): 10 nM and 8 nM | Kd (ComR T90A): 244 ± 108 nM | Kd (ComR R92A): 277 ± 23 nM | affinity in words (ComR R92A; ITC, ComR R92A): decreased affinity for XIP | stability [3]: more stable | Kd (ComR F171A/Y174A): 87 ± 9 nM
